Measured values taken from patent US20250092033A1, “HETEROAROMATIC NITROGEN-OXIDE COMPOUND, PREPARATION METHOD THEREFOR, AND USE THEREOF” (BEIJING AVISTONE BIOTECHNOLOGY CO., LTD., priority 2021, published 2025).

Tests used:
H1993 cell line = experiment: Cell proliferation inhibition experiment (CellTiter-Glo), H1993; assay type: cell-based; details: Homo sapiens, NCI-H1993, CTG, 72 h
Experimental: (§1) CellTiter-Glo™ live cell detection kit adopts luciferase as the detection substance, and the luciferase needs the participation of ATP in the luminescence process. CellTiter-Glo™ reagent was added into the cell culture medium and the luminescence value was measured. The light signal is in direct proportion to the amount of ATP in the system, ATP is in direct correlation with number of living cells. Therefore, the proliferation of cells can be detected by detecting the content of ATP with CellTiter-Glo kit.
(§2) In the experiment, the proliferation inhibition effect of the prepared compounds on tumor cell lines Hs746T, EBC-1 and H1993 was measured by a celltiter-glo (CTG) method, and 50% inhibition concentration IC50 was calculated.
(§3) The compounds were determined on the selected cells, the solvent control was set and a total of 10 concentrations were detected, 2 replicates per concentration.
(§4) a) Cells in the logarithmic growth phase were harvested and counted by a […]. The cell viability was detected by a trypan blue exclusion method to ensure that the cell viability was over 90%.
(§5) b) The cell concentration was adjusted; 30 μL of cell suspension was added to a 384-well plate respectively.
(§6) c) Cells in a 384-well plate were incubated overnight at 37° C., 5% CO2 and 95% humidity.
(§7) a) 10 times of drug solution was prepared with the highest concentration of 10 mM, 10 concentrations and 3 times dilution, 10 μL of drug solution was added into each well of a 384-well plate inoculated with cells, and three multiple wells were arranged for each drug concentration. DMSO was the blank control.
(§8) b) The cells in the 384-well plate were incubated for a further 72 h at 37° C., 5% CO2 and 95% humidity before CTG analysis.
(§9) a) The CTG reagent was melted and the cell plate was equilibrated to room temperature for 30 min.
(§10) b) An equal volume of CTG solution was added to each well.
(§11) c) Cells were lysed by shaking on an orbital shaker for 5 minutes.
(§12) d) The cell plate was left at room temperature for 20 minutes to stabilize the luminescence signal.
(§13) e) The cold light value was read.
(§14) The data was analyzed by GraphPad Prism 8 software, and the dose-response curve was fitted with nonlinear S-curve regression, and the IC50 value was calculated therefrom.
(§15) Cell viability(%)=(Lumdrugs to be tested-Lumblank control)/(Lumcell control-Lumblank control)×100%.

[1] = molecular target: T1, wild type (WT) MET kinase (Homo sapiens, UniProt P08581); experiment: Kinase inhibition experiment (HTRF KinEASE-TK kit), wild-type MET; assay type: biochemical; details: 10 concentrations, 3-fold dilution
T1 construct: purchased Carna 08-151
T1 sequence (P08581 25-1390): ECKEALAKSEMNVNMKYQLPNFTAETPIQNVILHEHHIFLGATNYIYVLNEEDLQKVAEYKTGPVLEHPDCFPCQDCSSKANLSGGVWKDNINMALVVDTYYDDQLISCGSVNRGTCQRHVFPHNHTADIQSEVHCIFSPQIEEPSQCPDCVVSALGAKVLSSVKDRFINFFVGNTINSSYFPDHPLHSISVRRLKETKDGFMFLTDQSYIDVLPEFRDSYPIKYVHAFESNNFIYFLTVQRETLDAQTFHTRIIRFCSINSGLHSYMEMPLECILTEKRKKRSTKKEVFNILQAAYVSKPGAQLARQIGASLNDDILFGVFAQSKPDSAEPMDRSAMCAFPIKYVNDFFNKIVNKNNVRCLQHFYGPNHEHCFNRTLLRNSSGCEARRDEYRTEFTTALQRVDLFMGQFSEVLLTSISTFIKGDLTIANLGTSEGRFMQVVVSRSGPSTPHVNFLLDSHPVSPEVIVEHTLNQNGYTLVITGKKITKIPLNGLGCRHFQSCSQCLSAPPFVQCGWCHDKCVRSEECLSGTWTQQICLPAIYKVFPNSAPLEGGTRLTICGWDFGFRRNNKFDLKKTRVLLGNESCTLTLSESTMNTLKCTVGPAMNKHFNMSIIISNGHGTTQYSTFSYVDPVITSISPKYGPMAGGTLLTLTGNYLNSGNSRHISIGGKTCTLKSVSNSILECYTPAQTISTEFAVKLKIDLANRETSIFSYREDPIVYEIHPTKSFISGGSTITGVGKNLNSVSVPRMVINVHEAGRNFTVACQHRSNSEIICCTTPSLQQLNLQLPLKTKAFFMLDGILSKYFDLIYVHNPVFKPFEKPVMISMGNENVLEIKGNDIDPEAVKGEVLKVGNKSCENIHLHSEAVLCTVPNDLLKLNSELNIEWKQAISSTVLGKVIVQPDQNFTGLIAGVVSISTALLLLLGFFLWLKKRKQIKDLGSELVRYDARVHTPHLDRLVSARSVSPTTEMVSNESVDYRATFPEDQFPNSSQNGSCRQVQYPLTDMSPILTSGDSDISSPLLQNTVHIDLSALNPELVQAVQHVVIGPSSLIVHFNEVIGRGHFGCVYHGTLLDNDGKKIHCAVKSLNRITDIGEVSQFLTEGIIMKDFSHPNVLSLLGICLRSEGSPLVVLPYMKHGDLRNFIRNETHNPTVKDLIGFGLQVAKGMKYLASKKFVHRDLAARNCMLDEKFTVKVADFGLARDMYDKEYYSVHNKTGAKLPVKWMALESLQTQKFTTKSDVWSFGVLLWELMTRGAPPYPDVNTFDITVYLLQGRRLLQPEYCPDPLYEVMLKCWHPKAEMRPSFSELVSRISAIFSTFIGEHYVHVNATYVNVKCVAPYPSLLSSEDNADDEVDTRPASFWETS
Experimental: (§16) The activity of the compounds was determined by detecting the residual amount of ATP after reacting with wild-type or mutant MET protein kinase by using an HTRF KinEASE-TK kit. […]
(§17) The compounds were determined on the selected kinase, the solvent control was set and a total of 10 concentrations were detected, diluted 3-fold, 2 replicates per concentration.
(§18) 1 volume of 5× kinase reaction buffer and 4 volumes of water; 5 mM MgCl2; 1 mM DTT; 1 mM MnCl2; or 2500 nm SEB.
(§19) 1) 10 nl or 4 μlof the diluted compound was transferred to each well of the reaction plate (784075 or 264706, Greiner or Thermo) with a pipette, the reaction plate was sealed with a sealing plate, and centrifuged at 1000 for 1 minute.
(§20) 2) 2× MET was prepared from 1× enzyme reaction buffer, 5 μl or 2 μl kinase was added to each well of the reaction plate, the reaction plate was sealed with a sealing plate, centrifuged at 1000 g for 30 seconds and incubated at room temperature for 10 min.
(§21) 3) a mixed solution of 2× TK-substrate-biotin and ATP were prepared from 1× enzyme reaction buffer solution, 5 μl or 2 μl TK-substrate-biotin/ATP of the mixed solution was added into a reaction plate, the reaction plate was sealed with a sealing plate, centrifuged at 1000 g for 30 seconds and reacted for 50 minutes or 10 minutes at room temperature.
(§22) 4) a mixed solution of 4× or 2× Sa-XL 665 and TK-antibody-Cryptate were prepared from HTRF detection buffer, 5 or 10 μl of the mixed solution of Sa-XL 665 and TK-antibody-Cryptate was added into each well, centrifuged at 1000 g for 30 seconds, and reacted at room temperature for 1 h.
(§23) 5) the fluorescence signals at 615 nm (cryptate) and 665 nm (XL665) were read with Envision 2104 or TECAN.
(§24) The data was analyzed using GraphPad Prism 6.0 or 7 software, and the dose-response curve was fitted with nonlinear S-curve regression, and the IC50 value was calculated therefrom.
(§25) Enzyme Inhibition Percent (%)=100-(Signalmpd-SignalAve_PC)/(SignalAve_VC-SignalAve_PC)×100

MET F1200I = molecular target: T2, MET F1200I (Homo sapiens, UniProt P08581, F1200I); experiment: Kinase inhibition experiment (HTRF KinEASE-TK kit), mutant MET F1200I; assay type: biochemical; details: 10 concentrations, 3-fold dilution
T2 construct: purchased Signalchem M52-12GG/Y767-2
T2 sequence (P08581 25-1390 F1200I): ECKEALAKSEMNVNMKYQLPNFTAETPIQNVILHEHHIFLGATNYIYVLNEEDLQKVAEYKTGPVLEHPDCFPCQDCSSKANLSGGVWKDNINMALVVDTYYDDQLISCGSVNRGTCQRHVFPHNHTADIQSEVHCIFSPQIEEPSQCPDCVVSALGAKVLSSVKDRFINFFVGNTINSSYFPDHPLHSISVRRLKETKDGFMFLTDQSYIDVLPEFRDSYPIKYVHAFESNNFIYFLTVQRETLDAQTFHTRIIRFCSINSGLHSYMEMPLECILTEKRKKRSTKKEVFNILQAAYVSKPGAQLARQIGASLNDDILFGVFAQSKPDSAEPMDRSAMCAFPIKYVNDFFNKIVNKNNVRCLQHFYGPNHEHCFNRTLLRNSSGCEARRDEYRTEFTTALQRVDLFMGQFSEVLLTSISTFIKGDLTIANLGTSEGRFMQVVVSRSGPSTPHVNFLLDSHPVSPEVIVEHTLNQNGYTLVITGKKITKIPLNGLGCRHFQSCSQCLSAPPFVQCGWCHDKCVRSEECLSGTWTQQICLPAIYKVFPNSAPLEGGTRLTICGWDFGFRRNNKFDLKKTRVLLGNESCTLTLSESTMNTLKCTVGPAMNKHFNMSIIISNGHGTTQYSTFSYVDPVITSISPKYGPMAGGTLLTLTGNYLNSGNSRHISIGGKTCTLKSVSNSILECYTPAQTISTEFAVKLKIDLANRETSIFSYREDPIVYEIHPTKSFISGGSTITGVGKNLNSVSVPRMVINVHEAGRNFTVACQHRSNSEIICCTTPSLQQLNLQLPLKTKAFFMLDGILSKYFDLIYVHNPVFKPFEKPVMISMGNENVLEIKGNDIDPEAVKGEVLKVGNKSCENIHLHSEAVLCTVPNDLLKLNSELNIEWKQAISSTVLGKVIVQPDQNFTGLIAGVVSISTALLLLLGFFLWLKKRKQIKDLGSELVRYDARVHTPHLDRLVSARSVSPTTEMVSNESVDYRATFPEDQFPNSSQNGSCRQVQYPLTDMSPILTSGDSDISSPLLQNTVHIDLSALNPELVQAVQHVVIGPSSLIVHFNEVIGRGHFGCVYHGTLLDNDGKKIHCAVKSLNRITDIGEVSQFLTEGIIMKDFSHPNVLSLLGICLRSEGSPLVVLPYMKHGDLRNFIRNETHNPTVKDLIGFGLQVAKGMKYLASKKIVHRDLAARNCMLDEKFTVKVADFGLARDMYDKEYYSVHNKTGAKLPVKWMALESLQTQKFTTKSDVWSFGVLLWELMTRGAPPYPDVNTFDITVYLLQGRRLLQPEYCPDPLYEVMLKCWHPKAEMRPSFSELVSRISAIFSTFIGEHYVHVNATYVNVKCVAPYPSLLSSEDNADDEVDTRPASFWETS
Experimental: as §16, §17, §18, §19, §20, §21, §22, §23, §24, §25

MET D1228N = molecular target: T3, MET D1228N (Homo sapiens, UniProt P08581, D1228N); experiment: Kinase inhibition experiment (HTRF KinEASE-TK kit), mutant MET D1228N; assay type: biochemical; details: 10 concentrations, 3-fold dilution
T3 construct: purchased Signalchem M52-12IG
T3 sequence (P08581 25-1390 D1228N): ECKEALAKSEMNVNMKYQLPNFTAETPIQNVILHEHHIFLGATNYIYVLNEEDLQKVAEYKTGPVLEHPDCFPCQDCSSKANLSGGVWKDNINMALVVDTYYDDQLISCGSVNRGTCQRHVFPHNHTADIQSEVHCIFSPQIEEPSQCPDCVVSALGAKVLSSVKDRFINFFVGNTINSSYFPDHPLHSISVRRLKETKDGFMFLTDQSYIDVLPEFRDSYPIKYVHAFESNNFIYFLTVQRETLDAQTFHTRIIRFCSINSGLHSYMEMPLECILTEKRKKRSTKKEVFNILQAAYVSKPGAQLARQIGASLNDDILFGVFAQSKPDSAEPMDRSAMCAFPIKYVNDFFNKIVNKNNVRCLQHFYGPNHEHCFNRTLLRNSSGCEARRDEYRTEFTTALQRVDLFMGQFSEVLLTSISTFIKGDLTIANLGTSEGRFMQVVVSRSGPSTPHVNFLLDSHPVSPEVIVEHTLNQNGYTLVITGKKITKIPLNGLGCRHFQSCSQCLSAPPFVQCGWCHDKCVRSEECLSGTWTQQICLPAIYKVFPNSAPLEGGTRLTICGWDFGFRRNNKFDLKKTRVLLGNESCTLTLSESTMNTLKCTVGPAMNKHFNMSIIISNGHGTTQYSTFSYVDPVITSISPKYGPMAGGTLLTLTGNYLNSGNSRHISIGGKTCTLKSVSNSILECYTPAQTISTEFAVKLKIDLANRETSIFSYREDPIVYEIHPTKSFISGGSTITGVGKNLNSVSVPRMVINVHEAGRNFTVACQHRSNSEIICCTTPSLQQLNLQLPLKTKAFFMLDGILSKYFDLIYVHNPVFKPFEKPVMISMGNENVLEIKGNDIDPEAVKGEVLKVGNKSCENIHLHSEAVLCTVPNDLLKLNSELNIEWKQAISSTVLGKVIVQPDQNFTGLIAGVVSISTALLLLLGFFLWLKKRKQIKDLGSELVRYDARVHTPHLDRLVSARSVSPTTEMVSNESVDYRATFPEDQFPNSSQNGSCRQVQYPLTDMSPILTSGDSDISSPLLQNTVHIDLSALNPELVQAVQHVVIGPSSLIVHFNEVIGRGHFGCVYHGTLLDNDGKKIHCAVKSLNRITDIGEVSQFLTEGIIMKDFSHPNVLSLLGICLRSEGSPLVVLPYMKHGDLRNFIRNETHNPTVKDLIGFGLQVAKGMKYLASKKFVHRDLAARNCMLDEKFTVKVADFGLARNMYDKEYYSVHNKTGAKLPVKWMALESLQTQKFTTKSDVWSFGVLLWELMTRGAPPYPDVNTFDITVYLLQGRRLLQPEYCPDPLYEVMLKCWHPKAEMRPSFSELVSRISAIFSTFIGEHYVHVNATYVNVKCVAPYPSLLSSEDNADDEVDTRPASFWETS
Experimental: as §16, §17, §18, §19, §20, §21, §22, §23, §24, §25

EBC-1 cell line = experiment: Cell proliferation inhibition experiment (CellTiter-Glo), EBC-1; assay type: cell-based; details: Homo sapiens, CTG, 72 h
Experimental: as §1, §2, §3, §4, §5, §6, §7, §8, §9, §10, §11, §12, §13, §14, §15

Hs746T cell line = experiment: Cell proliferation inhibition experiment (CellTiter-Glo), Hs746T; assay type: cell-based; details: Homo sapiens, Hs 746T, CTG, 72 h
Experimental: as §1, §2, §3, §4, §5, §6, §7, §8, §9, §10, §11, §12, §13, §14, §15

IC50 (H1993 cell line) | IC50 [1] | IC50 (MET F1200I) | IC50 (MET D1228N) | SMILES | IC50 (EBC-1 cell line) | IC50 (Hs746T cell line)
 | 18 nM | 9.8 nM | 30.2 nM | O=C(Nc1ccc(Oc2ccnc3[nH]nc(N[C@H]4CC[C@@H](O)C4)c23)c(Cl)c1)c1ccc(F)c(-c2ccc(F)cc2)[n+]1[O-] [Final product 119] |  | 
 | 1.3 nM | 14.5 nM | 17.6 nM | O=C(Nc1ccc(Oc2ccnc3[nH]nc(N[C@H]4COC[C@@H]4O)c23)c(Cl)c1)c1ccc(F)c(-c2ccc(F)cc2)[n+]1[O-] [Final product 120] |  | 
42.3 nM | 4.3 nM | 11.4 nM | 19 nM | C[C@H](CO)Nc1n[nH]c2nccc(Oc3ccc(NC(=O)c4ccc(Cl)c(-c5ccc(F)cc5)[n+]4[O-])cc3Cl)c12 [Final product 121] |  | 
 | 1 nM | 10 nM | 30.1 nM | O=C(Nc1ccc(Oc2ccnc3[nH]nc(N[C@H]4COC[C@@H]4O)c23)c(Cl)c1)c1ccc(Cl)c(-c2ccc(F)cc2)[n+]1[O-] [Final product 123] |  | 
 | 0.6 nM | 8.8 nM | 21.1 nM | Cc1ccc(C(=O)Nc2ccc(Oc3ccnc4[nH]nc(N[C@H]5COC[C@@H]5O)c34)c(Cl)c2)[n+]([O-])c1-c1ccc(F)cc1 [Final product 129] |  | 
 | 3.3 nM | 28.3 nM | 15.5 nM | [2H]C([2H])([2H])c1ccc(C(=O)Nc2ccc(Oc3ccnc4[nH]nc(N[C@H](C)CO)c34)c(Cl)c2)[n+]([O-])c1-c1ccc(F)cc1 [Final product 134] |  | 
31.1 nM | 4.5 nM | 15.3 nM | 18.5 nM | C[C@H](CO)Nc1n[nH]c2nccc(Oc3ccc(NC(=O)c4ccc(OC(F)F)c(-c5ccc(F)cc5)[n+]4[O-])cc3Cl)c12 [Final product 139] |  | 
 | 1.9 nM | 33 nM | 26.3 nM | C[C@H](CO)Nc1n[nH]c2nccc(Oc3ccc(NC(=O)c4ccc(OCC(F)F)c(-c5ccc(F)cc5)[n+]4[O-])cc3Cl)c12 [Final product 141] |  | 
 | 18 nM | 33 nM | 45.1 nM | C[C@H](CO)Nc1n[nH]c2nccc(Oc3ccc(NC(=O)c4ccc(OCC(F)(F)F)c(-c5ccc(F)cc5)[n+]4[O-])cc3Cl)c12 [Final product 142] |  | 
 | 5.6 nM | 13.2 nM | 27.4 nM | C[C@H](CO)Nc1n[nH]c2nccc(Oc3ccc(NC(=O)c4ccc(F)c(-c5ccc(F)cc5)[n+]4[O-])c(F)c3)c12 [Final product 155] |  | 
 | 1.7 nM | 17.5 nM | 46.2 nM | C[C@H](CO)Nc1n[nH]c2nccc(Oc3cc(F)c(NC(=O)c4ccc(Cl)c(-c5ccc(F)cc5)[n+]4[O-])cc3F)c12 [Final product 157] |  | 
 | 2.5 nM | 15.9 nM | 29.4 nM | C[C@H](CO)Nc1n[nH]c2nccc(Oc3cc(F)c(NC(=O)c4ccc(Cl)c(-c5ccc(F)cc5)[n+]4[O-])cc3Cl)c12 [Final product 158] |  | 
78.4 nM | 3 nM | 2 nM | 14.8 nM | C[C@H](CO)Nc1n[nH]c2nccc(Oc3ccc(NC(=O)c4ccc(Cl)c(-c5ccc(F)cc5)[n+]4[O-])c(F)c3)c12 [Final product 159] |  | 
 | 5.7 nM | 12.9 nM | 19.6 nM | Cc1ccc(C(=O)Nc2ccc(Oc3ccnc4[nH]nc(N[C@H](C)CO)c34)cc2F)[n+]([O-])c1-c1ccc(F)cc1 [Final product 160] |  | 
 | 1.8 nM | 2.1 nM | 6.9 nM | C[C@H](CO)Cn1ccc2ncnc(Oc3ccc(NC(=O)c4cccc(-c5ccc(F)cc5)[n+]4[O-])cc3F)c21 [Final product 169, (S)-2-((3-fluoro-4-((5-(3-hydroxy-2-methylpropyl)-5H-pyrrolo[3,2-d]pyrimidin-4-yl)oxy)phenyl)carbamoyl)-6-(4-fluorophenyl)pyridine 1-oxide] |  | 
 | 4.2 nM | 8.5 nM | 16.2 nM | C[C@@H](CO)Cn1ccc2ncnc(Oc3ccc(NC(=O)c4cccc(-c5ccc(F)cc5)[n+]4[O-])cc3F)c21 [Final product 170, (R)-2-((3-fluoro-4-((5-(3-hydroxy-2-methylpropyl)-5H-pyrrolo[3,2-d]pyrimidin-4-yl)oxy)phenyl)carbamoyl)-6-(4-fluorophenyl)pyridine 1-oxide] |  | 

Second part, the compound before the results:

SMILES | IC50 (H1993 cell line) | IC50 [1] | IC50 (MET F1200I) | IC50 (MET D1228N) | IC50 (EBC-1 cell line) | IC50 (Hs746T cell line)
CC[C@H](CO)Nc1n[nH]c2nccc(Oc3ccc(NC(=O)c4cccc(-c5ccc(F)cc5)[n+]4[O-])cc3F)c12 [Final product 5] | 33 nM | 5.2 nM | 10.8 nM | 12.8 nM |  | 
CC(C)(O)CNc1n[nH]c2nccc(Oc3ccc(NC(=O)c4cccc(-c5ccc(F)cc5)[n+]4[O-])cc3F)c12 [Final product 10] |  | 4.7 nM | 30.9 nM | 13.6 nM | 52.5 nM | 29.1 nM
O=C(Nc1ccc(Oc2ccnc3[nH]nc(NCC(O)CO)c23)c(F)c1)c1cccc(-c2ccc(F)cc2)[n+]1[O-] (stereo not drawn) [Final product 15] | 39.4 nM | 1.3 nM | 6.5 nM | 20.1 nM |  | 21.6 nM
O=C(Nc1ccc(Oc2ccnc3[nH]nc(NCC(CO)CO)c23)c(F)c1)c1cccc(-c2ccc(F)cc2)[n+]1[O-] [Final product 17] | 68.4 nM | 1.4 nM | 5.8 nM | 7.5 nM |  | 
O=C(Nc1ccc(Oc2ccnc3[nH]nc(N4CC(CO)C4)c23)c(F)c1)c1cccc(-c2ccc(F)cc2)[n+]1[O-] [Final product 25] | 62.2 nM | 1.9 nM | 4.3 nM | 20.5 nM |  | 
O=C(Nc1ccc(Oc2ccnc3[nH]nc(N4CCC(F)(CO)CC4)c23)c(F)c1)c1cccc(-c2ccc(F)cc2)[n+]1[O-] [Final product 30] | 50.2 nM | 1.7 nM | 5.5 nM | 11.2 nM |  | 
CC(O)C1CCN(c2n[nH]c3nccc(Oc4ccc(NC(=O)c5cccc(-c6ccc(F)cc6)[n+]5[O-])cc4F)c23)CC1 (stereo not drawn) [Final product 31] | 35 nM | 3 nM | 7.9 nM | 40.7 nM |  | 
O=C(Nc1ccc(Oc2ccnc3[nH]nc(N4CCC[C@@H](CO)C4)c23)c(F)c1)c1cccc(-c2ccc(F)cc2)[n+]1[O-] [Final product 32] | 30.6 nM | 4.4 nM | 10.1 nM | 16.7 nM |  | 
Cc1ccc(C(=O)Nc2ccc(Oc3ccnc4[nH]nc(NCC5(O)CC5)c34)c(F)c2)[n+]([O-])c1-c1ccc(F)cc1 [Final product 70] | 12 nM | 6.9 nM |  | 35.5 nM |  | 24.4 nM
CC(O)C1CN(c2n[nH]c3nccc(Oc4ccc(NC(=O)c5cccc(-c6ccc(F)cc6)[n+]5[O-])cc4Cl)c23)C1 (stereo not drawn) [Final product 107] | 76.9 nM | 1.6 nM | 12.3 nM | 26.8 nM |  | 
